Test results taken from US20220009920A1 (GB005, Inc., priority 2020, published 2022).

How the values were obtained:
Assay in all cases: Large panel kinase profiling
Type in all cases: biochemical
Details in all cases: 1 μM test article, 1 mM ATP
CDK6/D1 = target: T1, CDK6/D1 (Homo sapiens, UniProt Q00534)
T1 construct: AssayQuant Technologies, Inc. (ran the panel)
Summary of the method: (§1)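 Steps: combine kinase, CSox-Sensor substrate, 1 mM ATP and 1 μM compound; seal and incubate at 30° C.; read top fluorescence kinetically each minute, Ex 360 nm/Em 485 nm.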

CSNK2A2/CK2A2 = target: T2, CSNK2A2/CK2A2 (Homo sapiens, UniProt P19784)
T2 construct: AssayQuant Technologies, Inc. (service laboratory)
Summary of the method: as §1

DYRK1A = target: T3, DYRK1A (Homo sapiens, UniProt Q13627)
T3 construct: AssayQuant Technologies, Inc. (service laboratory)
Summary of the method: as §1

EGFR = target: T4, EGFR (Homo sapiens, UniProt P00533)
T4 construct: AssayQuant Technologies, Inc. (service laboratory)
Summary of the method: as §1

EPHA3 = target: T5, EPHA3 (Homo sapiens, UniProt P29320)
T5 sequence (P29320 21-983): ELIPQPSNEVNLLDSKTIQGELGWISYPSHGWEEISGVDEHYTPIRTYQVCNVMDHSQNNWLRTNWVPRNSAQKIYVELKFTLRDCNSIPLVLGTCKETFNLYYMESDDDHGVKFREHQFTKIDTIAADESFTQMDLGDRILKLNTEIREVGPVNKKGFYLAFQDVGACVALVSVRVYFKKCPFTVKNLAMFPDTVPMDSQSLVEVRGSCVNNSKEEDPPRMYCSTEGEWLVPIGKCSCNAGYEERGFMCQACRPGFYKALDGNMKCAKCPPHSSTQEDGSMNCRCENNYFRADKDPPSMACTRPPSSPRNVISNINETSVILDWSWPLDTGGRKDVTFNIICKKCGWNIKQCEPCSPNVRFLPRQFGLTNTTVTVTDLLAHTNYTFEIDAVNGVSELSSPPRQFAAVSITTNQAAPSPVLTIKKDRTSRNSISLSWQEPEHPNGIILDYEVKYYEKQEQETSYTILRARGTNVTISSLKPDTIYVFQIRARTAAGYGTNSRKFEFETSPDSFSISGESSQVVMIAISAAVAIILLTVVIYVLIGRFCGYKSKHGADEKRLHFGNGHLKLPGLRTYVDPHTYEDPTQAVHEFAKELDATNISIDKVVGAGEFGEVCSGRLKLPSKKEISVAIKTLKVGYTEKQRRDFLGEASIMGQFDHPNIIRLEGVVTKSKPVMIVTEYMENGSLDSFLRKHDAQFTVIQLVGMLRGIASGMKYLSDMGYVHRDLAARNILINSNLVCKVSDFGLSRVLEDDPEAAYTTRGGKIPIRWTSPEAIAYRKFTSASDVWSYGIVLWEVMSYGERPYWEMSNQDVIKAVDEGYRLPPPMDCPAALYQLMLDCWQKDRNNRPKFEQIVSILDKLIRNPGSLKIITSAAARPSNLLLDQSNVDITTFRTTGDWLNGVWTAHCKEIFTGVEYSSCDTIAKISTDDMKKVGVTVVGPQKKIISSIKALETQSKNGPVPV
Summary of the method: as §1

EPHA5 = EPHA5 (Homo sapiens, UniProt P54756)
Summary of the method: as §1

IGF1R = target: T6, IGF1R (Homo sapiens, UniProt P08069)
T6 construct: AssayQuant Technologies, Inc. (service provider)
Summary of the method: as §1

MAP3K8 = target: T7, MAP3K8 (Homo sapiens, UniProt P41279)
T7 construct: AssayQuant Technologies, Inc. (service provider)
Summary of the method: as §1

MAPK10/JNK3 = target: T8, MAPK10/JNK3 (Homo sapiens, UniProt P53779)
T8 construct: AssayQuant Technologies, Inc. (service provider)
Summary of the method: as §1

MAPK9/JNK2 = target: T9, MAPK9/JNK2 (Homo sapiens, UniProt P45984)
T9 construct: AssayQuant Technologies, Inc. (service provider)
Summary of the method: as §1

MARK1 = target: T10, MARK1 (Homo sapiens, UniProt Q9P0L2)
T10 construct: AssayQuant Technologies, Inc. (assay service)
Summary of the method: as §1

SK3 = target: T11, SK3 (Homo sapiens, UniProt Q9Y2K2)
T11 construct: AssayQuant Technologies, Inc. (contract assay)
Summary of the method: as §1

STK17B/DRAK2 = target: T12, STK17B/DRAK2 (Homo sapiens, UniProt O94768)
T12 construct: AssayQuant Technologies, Inc. (contract assay)
T12 sequence (O94768 1-372): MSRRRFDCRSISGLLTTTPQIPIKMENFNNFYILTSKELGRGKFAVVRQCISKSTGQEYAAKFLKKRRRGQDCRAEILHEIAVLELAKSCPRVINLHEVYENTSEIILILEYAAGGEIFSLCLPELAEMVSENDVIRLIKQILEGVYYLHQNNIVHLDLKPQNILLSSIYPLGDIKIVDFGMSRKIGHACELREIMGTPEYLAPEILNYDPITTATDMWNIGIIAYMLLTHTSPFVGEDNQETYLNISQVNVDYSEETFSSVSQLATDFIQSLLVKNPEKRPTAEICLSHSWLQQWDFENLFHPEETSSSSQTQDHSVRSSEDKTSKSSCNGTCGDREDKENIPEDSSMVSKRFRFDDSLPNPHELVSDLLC
Summary of the method: as §1

T1 sequence (Q00534 whole entry, species assumed): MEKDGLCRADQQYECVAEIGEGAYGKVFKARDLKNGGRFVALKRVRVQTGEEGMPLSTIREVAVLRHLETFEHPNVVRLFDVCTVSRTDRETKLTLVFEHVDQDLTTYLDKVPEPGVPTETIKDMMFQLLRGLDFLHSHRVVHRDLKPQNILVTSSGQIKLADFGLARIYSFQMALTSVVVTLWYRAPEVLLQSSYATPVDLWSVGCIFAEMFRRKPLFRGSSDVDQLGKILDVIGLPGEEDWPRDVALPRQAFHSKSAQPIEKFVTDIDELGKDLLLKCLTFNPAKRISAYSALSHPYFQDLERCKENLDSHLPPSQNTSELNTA
T1 sequence (P24385 whole entry partner, species assumed): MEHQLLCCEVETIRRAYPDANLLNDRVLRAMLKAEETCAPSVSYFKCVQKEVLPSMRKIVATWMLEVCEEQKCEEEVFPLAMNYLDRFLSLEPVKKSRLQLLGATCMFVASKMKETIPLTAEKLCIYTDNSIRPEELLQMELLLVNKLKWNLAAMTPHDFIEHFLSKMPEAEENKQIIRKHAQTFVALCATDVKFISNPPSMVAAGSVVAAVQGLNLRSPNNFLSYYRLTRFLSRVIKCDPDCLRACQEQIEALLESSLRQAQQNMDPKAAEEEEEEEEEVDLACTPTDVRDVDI
T8 sequence (P53779 whole entry): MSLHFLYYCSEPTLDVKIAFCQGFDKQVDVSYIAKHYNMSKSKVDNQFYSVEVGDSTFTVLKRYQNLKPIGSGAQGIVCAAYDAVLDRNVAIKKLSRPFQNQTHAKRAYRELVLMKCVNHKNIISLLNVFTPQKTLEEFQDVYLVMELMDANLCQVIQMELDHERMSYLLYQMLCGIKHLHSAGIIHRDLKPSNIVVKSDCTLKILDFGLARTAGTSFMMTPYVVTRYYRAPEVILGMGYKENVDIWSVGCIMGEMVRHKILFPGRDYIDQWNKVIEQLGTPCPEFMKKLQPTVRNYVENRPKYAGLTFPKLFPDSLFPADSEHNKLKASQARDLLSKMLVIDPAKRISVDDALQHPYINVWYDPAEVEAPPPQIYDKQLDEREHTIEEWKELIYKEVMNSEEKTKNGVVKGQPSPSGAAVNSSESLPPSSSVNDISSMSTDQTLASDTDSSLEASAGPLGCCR
Sequence of EPHA5 (P54756 25-1037, species assumed): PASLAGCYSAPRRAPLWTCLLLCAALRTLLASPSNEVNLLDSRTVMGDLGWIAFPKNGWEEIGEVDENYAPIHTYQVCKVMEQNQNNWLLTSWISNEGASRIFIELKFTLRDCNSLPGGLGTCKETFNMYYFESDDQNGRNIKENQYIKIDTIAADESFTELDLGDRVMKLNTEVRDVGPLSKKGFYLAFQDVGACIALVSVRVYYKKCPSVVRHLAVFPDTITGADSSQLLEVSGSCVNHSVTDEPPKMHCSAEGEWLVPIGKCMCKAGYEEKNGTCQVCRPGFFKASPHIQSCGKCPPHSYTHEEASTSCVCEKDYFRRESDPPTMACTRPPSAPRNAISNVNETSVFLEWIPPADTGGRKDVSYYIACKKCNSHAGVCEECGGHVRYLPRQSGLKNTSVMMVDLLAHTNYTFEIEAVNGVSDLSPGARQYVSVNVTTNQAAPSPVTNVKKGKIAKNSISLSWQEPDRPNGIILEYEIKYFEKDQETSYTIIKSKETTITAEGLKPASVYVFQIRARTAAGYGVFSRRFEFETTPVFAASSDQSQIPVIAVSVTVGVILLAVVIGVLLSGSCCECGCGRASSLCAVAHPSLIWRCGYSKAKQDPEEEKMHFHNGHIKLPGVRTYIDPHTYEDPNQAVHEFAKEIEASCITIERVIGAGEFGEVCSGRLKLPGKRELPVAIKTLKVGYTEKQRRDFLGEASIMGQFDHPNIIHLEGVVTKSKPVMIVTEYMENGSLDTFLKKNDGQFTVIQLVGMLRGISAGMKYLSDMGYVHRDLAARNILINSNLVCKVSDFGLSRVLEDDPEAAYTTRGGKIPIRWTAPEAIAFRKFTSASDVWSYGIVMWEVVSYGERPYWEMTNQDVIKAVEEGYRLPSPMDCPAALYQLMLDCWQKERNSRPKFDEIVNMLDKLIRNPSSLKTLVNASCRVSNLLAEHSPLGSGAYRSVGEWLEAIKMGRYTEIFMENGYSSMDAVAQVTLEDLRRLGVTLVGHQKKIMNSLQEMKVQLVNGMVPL
T6 sequence (P08069 31-1367, species assumed): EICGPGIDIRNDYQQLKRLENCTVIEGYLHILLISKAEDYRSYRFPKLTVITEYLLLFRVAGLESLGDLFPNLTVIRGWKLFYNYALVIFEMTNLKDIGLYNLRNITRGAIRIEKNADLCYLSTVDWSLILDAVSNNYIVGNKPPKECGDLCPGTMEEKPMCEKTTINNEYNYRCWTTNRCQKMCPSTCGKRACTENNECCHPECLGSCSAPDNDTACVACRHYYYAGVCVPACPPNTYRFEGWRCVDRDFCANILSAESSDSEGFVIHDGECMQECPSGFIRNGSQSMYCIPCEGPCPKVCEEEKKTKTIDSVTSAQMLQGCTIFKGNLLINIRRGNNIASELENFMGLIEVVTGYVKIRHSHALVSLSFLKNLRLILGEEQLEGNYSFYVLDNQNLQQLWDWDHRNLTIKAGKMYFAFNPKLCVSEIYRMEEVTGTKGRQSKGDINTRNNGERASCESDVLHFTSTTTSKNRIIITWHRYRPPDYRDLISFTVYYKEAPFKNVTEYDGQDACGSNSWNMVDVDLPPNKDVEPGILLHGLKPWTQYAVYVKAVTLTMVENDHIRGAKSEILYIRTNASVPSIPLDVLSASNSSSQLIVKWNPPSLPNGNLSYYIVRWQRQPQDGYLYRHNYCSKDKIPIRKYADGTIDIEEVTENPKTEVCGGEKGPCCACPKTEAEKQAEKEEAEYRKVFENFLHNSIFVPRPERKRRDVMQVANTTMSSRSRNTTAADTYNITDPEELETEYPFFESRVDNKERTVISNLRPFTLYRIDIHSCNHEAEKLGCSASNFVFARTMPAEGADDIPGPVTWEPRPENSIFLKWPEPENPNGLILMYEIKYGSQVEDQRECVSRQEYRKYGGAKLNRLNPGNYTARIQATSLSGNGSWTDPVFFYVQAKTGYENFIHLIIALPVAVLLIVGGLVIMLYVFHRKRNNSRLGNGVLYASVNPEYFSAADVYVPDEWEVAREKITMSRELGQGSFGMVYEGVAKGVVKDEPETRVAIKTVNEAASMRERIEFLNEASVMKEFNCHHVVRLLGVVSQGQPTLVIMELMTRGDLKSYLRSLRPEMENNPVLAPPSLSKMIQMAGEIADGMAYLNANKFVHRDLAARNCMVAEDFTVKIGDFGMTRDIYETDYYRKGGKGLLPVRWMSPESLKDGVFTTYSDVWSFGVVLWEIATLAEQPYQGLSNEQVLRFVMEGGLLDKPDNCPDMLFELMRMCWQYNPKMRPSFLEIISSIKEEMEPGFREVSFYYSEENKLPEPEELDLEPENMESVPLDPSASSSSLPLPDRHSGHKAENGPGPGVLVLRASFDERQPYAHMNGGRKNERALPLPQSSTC
T10 sequence (Q9P0L2 whole entry, species assumed): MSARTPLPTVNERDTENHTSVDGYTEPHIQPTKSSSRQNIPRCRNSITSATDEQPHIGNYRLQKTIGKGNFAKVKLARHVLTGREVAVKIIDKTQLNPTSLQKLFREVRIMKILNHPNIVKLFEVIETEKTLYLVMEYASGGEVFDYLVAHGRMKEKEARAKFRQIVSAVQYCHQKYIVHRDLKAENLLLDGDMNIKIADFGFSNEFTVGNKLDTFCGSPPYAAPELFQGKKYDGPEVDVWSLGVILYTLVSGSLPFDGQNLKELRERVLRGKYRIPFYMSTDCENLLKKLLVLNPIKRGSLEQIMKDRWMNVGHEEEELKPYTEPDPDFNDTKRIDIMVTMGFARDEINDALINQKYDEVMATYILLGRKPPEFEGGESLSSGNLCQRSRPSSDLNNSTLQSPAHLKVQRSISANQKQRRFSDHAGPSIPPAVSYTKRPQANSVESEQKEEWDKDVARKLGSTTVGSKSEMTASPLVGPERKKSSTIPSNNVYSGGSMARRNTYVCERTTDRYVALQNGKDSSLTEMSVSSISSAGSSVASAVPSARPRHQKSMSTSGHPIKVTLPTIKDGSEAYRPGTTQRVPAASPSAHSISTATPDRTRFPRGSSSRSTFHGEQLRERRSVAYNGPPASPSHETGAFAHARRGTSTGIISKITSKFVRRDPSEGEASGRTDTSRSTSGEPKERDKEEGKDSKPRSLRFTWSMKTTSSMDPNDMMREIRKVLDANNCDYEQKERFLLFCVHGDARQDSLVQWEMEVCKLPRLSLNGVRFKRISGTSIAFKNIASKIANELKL
T9 sequence (P45984 whole entry): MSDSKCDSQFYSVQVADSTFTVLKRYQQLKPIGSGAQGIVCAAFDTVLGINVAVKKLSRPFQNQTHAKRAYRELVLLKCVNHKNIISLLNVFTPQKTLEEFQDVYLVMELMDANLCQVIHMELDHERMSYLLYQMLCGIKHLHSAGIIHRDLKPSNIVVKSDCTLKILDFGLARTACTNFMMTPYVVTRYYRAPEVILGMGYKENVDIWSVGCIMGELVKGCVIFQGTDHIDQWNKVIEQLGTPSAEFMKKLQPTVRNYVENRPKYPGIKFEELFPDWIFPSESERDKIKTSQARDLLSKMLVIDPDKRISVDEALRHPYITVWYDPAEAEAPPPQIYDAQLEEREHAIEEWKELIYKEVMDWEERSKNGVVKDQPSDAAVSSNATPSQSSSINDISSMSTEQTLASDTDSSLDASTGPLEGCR
T2 sequence (P19784 whole entry): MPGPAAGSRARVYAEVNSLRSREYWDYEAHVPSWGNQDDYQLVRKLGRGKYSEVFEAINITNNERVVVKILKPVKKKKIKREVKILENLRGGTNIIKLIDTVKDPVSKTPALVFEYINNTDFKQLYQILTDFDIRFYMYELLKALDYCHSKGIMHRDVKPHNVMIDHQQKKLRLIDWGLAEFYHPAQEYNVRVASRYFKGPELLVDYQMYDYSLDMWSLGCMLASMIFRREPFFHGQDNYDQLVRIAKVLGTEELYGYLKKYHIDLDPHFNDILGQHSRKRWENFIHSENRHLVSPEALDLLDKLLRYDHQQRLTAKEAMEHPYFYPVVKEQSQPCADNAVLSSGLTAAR

Question: How did the inhibition at 1 µM (CDK6/D1) turn out when C=CC(=O)N1CCCC(c2c(F)cc(C(N)=O)c3[nH]c4c(c23)CCCCC4)C1 (single isomer, unassigned) [Compound 5-6] was run?
Answer: -5.8%

Question: And the inhibition at 1 µM (CSNK2A2/CK2A2)?
Answer: 11.4%

Question: And the inhibition at 1 µM (DYRK1A)?
Answer: 20.4%

Question: What about the inhibition at 1 µM (EGFR) of the same compound?
Answer: -7.8%

Question: What about the inhibition at 1 µM (EPHA3) of the same compound?
Answer: 0.7%

Question: And the inhibition at 1 µM (EPHA5)?
Answer: 8.1%

Question: What about the inhibition at 1 µM (IGF1R) of the same compound?
Answer: -16.7%

Question: What about the inhibition at 1 µM (MAP3K8) of the same compound?
Answer: 7.4%

Question: What about the inhibition at 1 µM (MAPK10/JNK3) of the same compound?
Answer: -13%

Question: And the inhibition at 1 µM (MAPK9/JNK2)?
Answer: -6.3%

Question: What about the inhibition at 1 µM (MARK1) of the same compound?
Answer: 15.4%

Question: What about the inhibition at 1 µM (SK3) of the same compound?
Answer: 5.3%

Question: What about the inhibition at 1 µM (STK17B/DRAK2) of the same compound?
Answer: 0.3%

Question: For C=CC(=O)N1CCC[C@@H](c2c(F)cc(C(N)=O)c3[nH]c4c(c23)CCC4)C1 [Compound 10-2, (S)-8-(1-acryloylpiperidin-3-yl)-7-fluoro-1,2,3,4-tetrahydrocyclo-penta[b]indole-5-carboxamide], which inhibition at 1 µM (CDK6/D1) is on record?
Answer: 12.8%

Question: And the inhibition at 1 µM (CSNK2A2/CK2A2)?
Answer: -144%

Question: And the inhibition at 1 µM (DYRK1A)?
Answer: 7.2%

Question: What about the inhibition at 1 µM (EGFR) of the same compound?
Answer: 1.6%

Question: And the inhibition at 1 µM (EPHA3)?
Answer: 1.6%

Question: And the inhibition at 1 µM (EPHA5)?
Answer: -13.5%

Question: What about the inhibition at 1 µM (IGF1R) of the same compound?
Answer: -26.1%

Question: What about the inhibition at 1 µM (MAP3K8) of the same compound?
Answer: 4.5%

Question: And the inhibition at 1 µM (MAPK10/JNK3)?
Answer: -4%

Question: And the inhibition at 1 µM (MAPK9/JNK2)?
Answer: 3.8%

Question: What about the inhibition at 1 µM (MARK1) of the same compound?
Answer: -12.9%

Question: And the inhibition at 1 µM (SK3)?
Answer: 11.6%

Question: And the inhibition at 1 µM (STK17B/DRAK2)?
Answer: -23.7%

Question: How did the inhibition at 1 µM (CDK6/D1) turn out when C=CC(=O)N1CCC[C@@H](c2c(F)cc(C(N)=O)c3[nH]c4c(c23)CC2(CC4)CC2)C1 [Compound 6-2, (S)-5-(1-acryloylpiperidin-3-yl)-6-fluoro-1,2,4,9-tetrahydrospiro[carbazole-3,1′-cyclopropane]-8-carboxamide] was run?
Answer: -4.3%

Question: What about the inhibition at 1 µM (CSNK2A2/CK2A2) of the same compound?
Answer: -141%

Question: And the inhibition at 1 µM (DYRK1A)?
Answer: -2.2%

Question: What about the inhibition at 1 µM (EGFR) of the same compound?
Answer: -7.7%

Question: What about the inhibition at 1 µM (EPHA3) of the same compound?
Answer: 10.1%

Question: And the inhibition at 1 µM (EPHA5)?
Answer: 17%

Question: And the inhibition at 1 µM (IGF1R)?
Answer: -11.6%

Question: And the inhibition at 1 µM (MAP3K8)?
Answer: 10.1%

Question: What about the inhibition at 1 µM (MAPK10/JNK3) of the same compound?
Answer: 32.1%

Question: And the inhibition at 1 µM (MAPK9/JNK2)?
Answer: 19.7%

Question: And the inhibition at 1 µM (MARK1)?
Answer: -63.9%

Question: What about the inhibition at 1 µM (SK3) of the same compound?
Answer: 14.7%

Question: And the inhibition at 1 µM (STK17B/DRAK2)?
Answer: -26.9%
